In brackets after ≈: the same amount, converted by molar mass. Where two headings read alike, the source gives them in different places.
Key:
[1] = test system: K. pneumoniae 225; assay: NCCLS microdilution susceptibility test; format: cell-based, Klebsiella pneumoniae
[2] = test system: E. aerogenes; assay: Disk diffusion susceptibility test; format: cell-based, Enterobacter aerogenes; conditions: all the E. aerogenes strains
Procedure: (§1) Antibiotic susceptibilities were determined by standard disk-diffusion (NCCLS Standard M2-A6) and agar-dilution (NCCLS Standard M7-A4) procedures. Disks were obtained from Becton Dickinson Microbiology Systems (Cockeysville, Md.). Disk-diffusion susceptibilities to the following antibiotics were determined, ampicillin; amoxicillin clavulanic acid; aztreonam; cefazolin; cefoxitin; cefuroxime; cefotaxime; ceftriaxone; ceftazidime; cefepime; imipenem; gentamicin; trimethoprim/sulfamethoxazole and ciprofloxacin. […] The following quality control strains were run simultaneously with the test organisms Escherichia coli ATCC 25922, Pseudomonas aeruginosa ATCC 27853, and E. coli ATCC 35218. Throughout this study, results were interpreted using NCCLS criteria for disk diffusion (NCCLS M2-A6) and broth dilution (NCCLS M7-A4).

[3] = test system: K. pneumoniae 225; assay: MicroScan Walkaway microdilution susceptibility test; format: cell-based, Klebsiella pneumoniae; conditions: for MIC: Klebsiella pneumoniae, 225, read-out: MicroScan MIC; for MicroScan susceptibility result: K. pneumoniae 225
[4] = test system: K. pneumoniae 225; assay: NCCLS disk diffusion assay; format: cell-based, Klebsiella pneumoniae; conditions: Kleb 225; for Zone Size: disk diffusion
[5] = test system: E. coli HB101 transformant (17 kb plasmid); conditions: disk diffusion, Tr (17 kb) = transformant E. coli HB101
[6] = test system: E. coli C600 transconjugant; conditions: disk diffusion, Tc = transconjugate E. coli C600
[7] = test system: E. aerogenes; format: cell-based, Enterobacter aerogenes
Procedure: Antibiotic susceptibilities were determined by standard disk-diffusion (NCCLS Standard M2-A6) and agar-dilution (NCCLS Standard M7-A4) procedures. Disks were obtained from Becton Dickinson Microbiology Systems (Cockeysville, Md.). […] Throughout this study, results were interpreted using NCCLS criteria for disk diffusion (NCCLS M2-A6) and broth dilution (NCCLS M7-A4).

[8] = test system: E. coli C600N transconjugants; assay: Susceptibility of transconjugants; format: cell-based, Escherichia coli; conditions: E. coli C600N transconjugants of E. aerogenes 187, 200, 220, 184
Procedure: as §1
[…]. The filter paper mating technique with overnight incubation at 37° C. were performed as described previously (Philippon et al., Antimicrob. Agents Chemother., 33:1131-1136 (1989)). Transconjugants were selected on LB (Luria Bertani) agar [Difco (Detroit, Mich.)] plates containing 12 μg per ml nalidixic acid and 20 μg per ml ampicillin.

[9] = test system: K. pneumoniae; assay: Agar dilution MIC, South African isolates; format: cell-based, Klebsiella pneumoniae; conditions: tzp with tazobactam 4 μg/ml
Source text: (§2) The strains were provided in response to a request for all strains of Enterobacteriaceae, lacking inducible beta-lactamases, that were intermediate or resistant to cefotaxime or ceftazidime. […]

[10] = test system: E. coli; assay: Agar dilution MIC, South African isolates; format: cell-based, Escherichia coli; conditions: tzp with tazobactam 4 μg/ml
Source text: as §2

[11] = test system: P. mirabilis; assay: Agar dilution MIC, South African isolates; format: cell-based, Proteus mirabilis; conditions: 4 strains, tzp with tazobactam 4 μg/ml
Source text: During a period of three months in 1993, […] strains of Klebsiella pneumoniae (13 blood, 5 burn, 7 wound, 11 tracheal isolates), 4 strains of Proteus mirabilis (all wound isolates) and 4 strains of Escherichia coli (1 blood, 1 burn, 2 wound isolates) were collected from patients at the following medical centers in South Africa: Tygerberg Hospital near Cape Town, King Edward VIII Hospital in Durban, Chris Hani Baragwanath Hospital in Soweto and Pretoria Academic Hospital in Pretoria. The strains were provided in response to a request for all strains of Enterobacteriaceae, lacking inducible beta-lactamases, that were intermediate or resistant to cefotaxime or ceftazidime. […] Therefore accurate prevalence data were not obtained.
Antibiotic susceptibility was determined by standard disk diffusion (NCCLS Standard M2-T4, 1994) and agar dilution (NCCLS Standard M7-T2, 1994) procedures. Standard powders of antimicrobial agents were kindly provided by the following companies: piperacillin and tazobactam (Lederle Laboratories, Wayne, N.J.); cefoxitin and imipenem, (Merck, Rathway, N.J.); cefotaxime, (Hoechst-Roussel Pharmaceuticals Inc., Somerville, N.J.); ceftazidime, (Glaxo Group Research Ltd., Greenford, England); aztreonam and cefepime, (Bristol-Myers Squibb, Princeton, N.J.). Disks for agar diffusion were obtained from Becton Dickinson Microbiology Systems (Cockeysville, Md.). For quality control purposes, the following quality control strains were run simultaneously with the test organisms E. coli ATCC 25922, Pseudomonas aeruginosa ATCC 27853, E. coli ATCC 35218, and Staphylococcus aureus ATCC 29213. Throughout this study, results were interpreted using NCCLS criteria for disk diffusion (NCCLS Standard M2-T4, 1994) and broth dilution (NCCLS Standard M7-T2, 1994).

[12] = test system: K. pneumoniae 225; assay: Three-dimensional test (enzymatic inactivation of antibiotics); conditions: beta-lactamase-mediated hydrolysis by K. pneumoniae 225, lawn E. coli ATCC 25922
[13] = test system: beta-lactamases in sonic extracts of E. aerogenes; assay: Isoelectric focusing overlay: cefotaxime hydrolysis, inhibitors, induction; conditions: cefoxitin at 1/4 of the MIC
[14] = 1 E. aerogenes strain with Bush group 1 and group 2be (SHV-3) enzymes
[15] = 1 E. aerogenes strain with Bush group 1 and group 2be (SHV-5) enzymes
[16] = 29 E. aerogenes strains with Bush group 1 and group 2be (SHV-4) enzymes
[17] = resistance phenotype Kpn1, 8 strains
[18] = resistance phenotype Kpn2, 28 strains
[19] = resistance phenotype Kpn3 (K. pneumoniae Pit 68), 1 strain
[20] = resistance phenotype Ec1, 3 strains
[21] = resistance phenotype Ec2, 1 strain

C=CC1=C(C(=O)O)N2C(=O)[C@@H](NC(=O)/C(=N\OCC(=O)O)c3csc(N)n3)[C@H]2SC1 [cefixime]
MIC ([1]; Klebsiella pneumoniae, 225): > 64 µg/mL

amoxicillin/clavulanate
MIC ([1]; NCCLS microdilution, Mueller-Hinton broth, K. pneumoniae 225): 64 µg/mL | Disk diffusion susceptibility [2]: resistant

O=C(O)c1cn(C2CC2)c2cc(N3CCNCC3)c(F)cc2c1=O [ciprofloxacin]
MIC ([1]; Klebsiella pneumoniae, 225): 0.5 µg/mL (≈ 1.51 µM) | MIC [3]: 2 µg/mL (≈ 6.04 µM) | Disk diffusion interpretation [4]: susceptible | Zone Size [4]: 22 mm | Disk diffusion susceptibility [2]: susceptible | Zone Size [5]: 31 mm | Zone Size [6]: 31 mm

gentamicin
MicroScan susceptibility result [3]: Resistant | Zone Size [4]: 8 mm | MIC range [7, 14]: 8 µg/mL | MIC range [7, 15]: >128 µg/mL | MIC range [7, 16]: 1 to 16 µg/mL | susceptibility after transfer of plasmids encoding SHV beta-lactamase genes [8]: resistance | Zone Size [5]: 25 mm | Zone Size [6]: 8 mm

CO[C@@]1(NC(=O)Cc2cccs2)C(=O)N2C(C(=O)O)=C(COC(N)=O)CS[C@@H]21 [cefoxitin]
MIC ([1]; Klebsiella pneumoniae, 225): > 64 µg/mL | Zone Size [4]: 6 mm | MIC range [9, 17]: 2 to 4 µg/mL | MIC range [9, 18]: 2 to 8 µg/mL | MIC range [9, 19]: > 128 µg/mL | MIC range ([9]; resistance phenotype Kpn3 (K. pneumoniae Pit 68), 1 strain, listed as fox): >128 µg/mL | MIC range [10, 20]: 4 µg/mL | MIC range [10, 21]: 8 µg/mL | MIC range [11]: 2 to 4 µg/mL | MIC range [7, 14]: >256 µg/mL | MIC range [7, 15]: >256 µg/mL | MIC range [7, 16]: >256 µg/mL | Zone Size [5]: 25 mm | Zone Size [6]: 7 mm | three dimensional test [12]: positive | Inducible by cefoxitin ([13]; SHV-3 strain (1), Bush group 1 enzyme pI 8.3): yes | Inducible by cefoxitin ([13]; SHV-3 strain (1), Bush group 2be enzyme pI 6.9): no | Inducible by cefoxitin ([13]; SHV-4 strains (29), Bush group 1 enzyme pI 8.3): yes | Inducible by cefoxitin ([13]; SHV-4 strains (29), Bush group 2be enzyme pI 7.8): no | Inducible by cefoxitin ([13]; SHV-5 strain (1), Bush group 1 enzyme pI 8.3): yes | Inducible by cefoxitin ([13]; SHV-5 strain (1), Bush group 2Be enzyme pI 8.0): no

CO/N=C(\C(=O)N[C@@H]1C(=O)N2C(C(=O)O)=C(COC(N)=O)CS[C@H]12)c1ccco1 [cefuroxime]
MicroScan susceptibility result [3]: Resistant | MIC [3]: > 16 µg/mL | Disk diffusion susceptibility [2]: resistant

CC1COc2c(N3CCN(C)CC3)c(F)cc3c(=O)c(C(=O)O)cn1c23 (stereo not shown) [ofloxacin]
MIC [3]: 2 µg/mL (≈ 5.53 µM)

CO/N=C(\C(=O)N[C@@H]1C(=O)N2C(C(=O)[O-])=C(C[N+]3(C)CCCC3)CS[C@H]12)c1csc(N)n1 [cefepime]
MIC ([1]; Klebsiella pneumoniae, 225): 1 µg/mL (≈ 2.08 µM) | MIC range [9, 18]: 0.5 to 4 µg/mL | MIC range [10, 21]: 2 µg/mL | MIC range [11]: 2 µg/mL

C[C@@H](O)[C@H]1C(=O)N2C(C(=O)O)=C(SCCN=CN)C[C@H]12 [imipenem]
MIC ([1]; Klebsiella pneumoniae, 225): 1 µg/mL (≈ 3.34 µM) | Zone Size [4]: 22 mm | MIC range [9, 17]: 0.12 µg/mL | MIC range [9, 18]: 0.12 to 1 µg/mL | MIC range [9, 19]: 0.12 µg/mL | MIC range [10, 20]: 0.12 µg/mL | MIC range [10, 21]: 0.12 µg/mL | MIC range [11]: 0.5 to 1 µg/mL | MIC range [7, 14]: 0.5 µg/mL (≈ 1.67 µM) | MIC range [7, 15]: 1 µg/mL (≈ 3.34 µM) | MIC range [7, 16]: 0.5 µg/mL (≈ 1.67 µM) | Zone Size [5]: 33 mm | Zone Size [6]: 23 mm

O=C1CN(/N=C/c2ccc([N+](=O)[O-])o2)C(=O)N1 [nitrofurantoin]
MIC [3]: > 64 µg/mL

piperacillin/tazobactam
Zone Size [4]: 15 mm | MIC range [9, 17]: 2 to 4 µg/mL | MIC range [9, 19]: 16 µg/mL | MIC range [10, 20]: 1 µg/mL | MIC range [10, 21]: 32 µg/mL | MIC range [11]: 0.25 to 0.5 µg/mL | Zone Size [5]: 30 mm | Zone Size [6]: 14 mm

CC1(C)S[C@@H]2[C@H](NC(=O)[C@H](N)c3ccccc3)C(=O)N2[C@H]1C(=O)O [ampicillin]
Disk diffusion susceptibility [2]: resistant | Zone Size [5]: 7 mm

C[C@H]1COc2c(N3CCN(C)CC3)c(F)cc3c(=O)c(C(=O)O)cn1c23 [levofloxacin]
MIC [3]: 2 µg/mL (≈ 5.53 µM)

NC[C@H]1O[C@H](O[C@H]2[C@H](O)[C@@H](O[C@H]3O[C@H](CO)[C@@H](O)[C@H](N)[C@H]3O)[C@H](N)C[C@@H]2N)[C@H](N)C[C@@H]1O [tobramycin]
MicroScan susceptibility result [3]: Resistant | MIC [3]: > 8 µg/mL

NCC[C@H](O)C(=O)N[C@@H]1C[C@H](N)[C@@H](O[C@H]2O[C@H](CN)[C@@H](O)[C@H](O)[C@H]2O)[C@H](O)[C@H]1O[C@H]1O[C@H](CO)[C@@H](O)[C@H](N)[C@H]1O [amikacin]
MicroScan susceptibility result [3]: Resistant | MIC [3]: > 32 µg/mL | Zone Size [5]: 12 mm

COCC1=C(C(=O)O)N2C(=O)[C@@H](NC(=O)/C(=N\OC)c3csc(N)n3)[C@H]2SC1 [cefpodoxime]
MIC ([1]; Klebsiella pneumoniae, 225): 64 µg/mL (≈ 150 µM)

O=C(N[C@H](CO)[C@H](O)c1ccc([N+](=O)[O-])cc1)C(Cl)Cl [chloramphenicol]
MicroScan susceptibility result [3]: Resistant | MIC [3]: > 16 µg/mL | Zone Size [4]: 8 mm | Zone Size [5]: 22 mm | Zone Size [6]: 12 mm

CO[C@@]1(NC(=O)C2SC(=C(C(N)=O)C(=O)O)S2)C(=O)N2C(C(=O)O)=C(CSc3nnnn3C)CS[C@@H]21 (stereo partly shown) [cefotetan]
MIC [3]: 16 µg/mL (≈ 27.8 µM) | Zone Size [4]: 12 mm | Zone Size [5]: 30 mm | Zone Size [6]: 11 mm

Cc1nnc(SCC2=C(C(=O)O)N3C(=O)[C@@H](NC(=O)Cn4cnnn4)[C@H]3SC2)s1 [cefazolin]
MIC ([1]; Klebsiella pneumoniae, 225): > 64 µg/mL | Disk diffusion susceptibility [2]: resistant

CC(=O)OCC1=C(C(=O)O)N2C(=O)[C@@H](NC(=O)Cc3cccs3)[C@H]2SC1 [cephalothin]
MIC ([1]; Klebsiella pneumoniae, 225): > 64 µg/mL

CC1(C)S[C@@H]2[C@H](NC(=O)[C@H](C(=O)O)c3ccsc3)C(=O)N2[C@H]1C(=O)O [ticarcillin]
MIC ([1]; Klebsiella pneumoniae, 225): > 64 µg/mL

CCN1CCN(C(=O)N[C@@H](C(=O)N[C@@H]2C(=O)N3[C@@H]2SC(C)(C)[C@@H]3C(=O)O)c2ccccc2)C(=O)C1=O [piperacillin]
MIC ([1]; Klebsiella pneumoniae, 225): > 64 µg/mL | MIC range [9, 19]: 64 µg/mL | MIC range [10, 20]: >128 µg/mL | MIC range [10, 21]: >128 µg/mL | MIC range [11]: 128 µg/mL

C[C@@H](O)[C@H]1C(=O)N2C(C(=O)O)=C(S[C@@H]3CN[C@H](C(=O)N(C)C)C3)[C@H](C)[C@H]12 [meropenem]
MIC ([1]; Klebsiella pneumoniae, 225): 0.06 µg/mL (≈ 0.156 µM)

Source: US6893846B2, “Primers for use in detecting beta-lactamases” (priority 1998, dated 2005)
